# US20190300573A1, “HUMAN MYOSIN PEPTIDES” (APITOPE INTERNATIONAL NV, priority 2016, published 2019)
# Legend:
# [1] = test system: DR4 mice; format: in vivo; details: first trial, myosin and Pertussis toxin injections repeated after a week; after 3 weeks
# Description: (§1) Appropriate amount of myosin extract was diluted to the desired volume with PBS, then mixed with equal volume of complete Freund's adjuvant (CFA; Difco) containing 8 mg/ml of heat-killed Mycobacterium Tuberculosis (hkMTB; Difco). The mixture was sonicated for 20 min, then mixed well by a 1 ml syringe until the emulsion became very thick and viscous. 100 μl of the emulsion was applied subcutaneously from tail base at a dose of 100 μg myosin/mouse. On day 0 and 2, 200 ng Pertussis toxin (Sigma Aldrich) in 0.5 ml of PBS was intraperitoneally injected to each mouse as a second adjuvant. In the first trial, the myosin and Pertussis toxin injections were repeated after a week. […] The development of EAM was assessed by echocardiographic and histopathological measurements after 3 weeks from myosin injection. […]
# In our first trial, it was planned to follow disease progression using echocardiography at 3 and 6 weeks. However, sudden death occurred in 3 out of 5 mice in the α-myosin treated group after 3 weeks, whereas the animals in the control group were all healthy and no signs of myocarditis were detected in their hearts by echocardiographic measurements (data not shown). […]
# Body weights of the mice were measured before the induction of EAM and at termination. […]
# [2] = test system: EAM induced DR4 mice; test: Histopathological analysis of myocarditis (H&E inflammatory cell infiltrate); format: in vivo; details: EAM induction, p=0.0079, Fisher's exact test
# Description: (§2) Appropriate amount of myosin extract was diluted to the desired volume with PBS, then mixed with equal volume of complete Freund's adjuvant (CFA; Difco) containing 8 mg/ml of heat-killed Mycobacterium Tuberculosis (hkMTB; Difco). The mixture was sonicated for 20 min, then mixed well by a 1 ml syringe until the emulsion became very thick and viscous. 100 μl of the emulsion was applied subcutaneously from tail base at a dose of 100 μg myosin/mouse. On day 0 and 2, 200 ng Pertussis toxin (Sigma Aldrich) in 0.5 ml of PBS was intraperitoneally injected to each mouse as a second adjuvant. In the first trial, the myosin and Pertussis toxin injections were repeated after a week. However, this second set of injections was excluded in later experiments to avoid induction of a too severe disease that might obscure any benefit of the peptide therapy. Control groups received PBS in hkMTB-boosted CFA (but without human cardiac myosin) as well as Pertussis toxin. The development of EAM was assessed by echocardiographic and histopathological measurements after 3 weeks from myosin injection. Spleens were collected to measure cardiac myosin responsive T cell proliferation. Bloods were collected to measure circulating anti-myosin antibody levels.
# The heart was dissected and fixed for 24 hours in 10% (v/v) formalin in PBS for histological analyses. […]
# [3] = test system: cardiac myosin responsive T cell proliferation; test: Anti-myosin T cell proliferation of splenocytes from EAM DR4 mice; format: in vivo; details: EAM induction, FIG. 3
# Description: as §1
# The splenocytes obtained from myosin immunised mice (as described herein) were cultured in 96 well plates in X-Vivo 15 media (Lonza) at a concentration of 5×10^5 cells/well. […] Finally, the cells were kept at −20 C.° at least overnight until ready to harvest. […]
# (§3) 2 different combinations of peptides were used for the therapy. […] Mice were terminated 3 weeks after the myosin injection and disease development and adaptive immune responses against cardiac myosin were assessed.
# [4] = test system: EAM induced DR4 mice; test: Echocardiographic analysis of left ventricle function in EAM DR4 mice; format: in vivo; details: n=5
# Description: as §2
# At the end of the 3 week experiment, the mice were anesthetised by intraperitoneal injection of Tribromoethanol (Avertin; SigmaAldrich) at a dose of 250 mg/kg. The left ventricle functions and diameters were analysed using Vevo 770 high-frequency, high-resolution echocardiography system (Visual Sonics) just before terminating the mice. The anesthetised mice were laid supine and butted to a heated platform by surgical tape stripes. Chest hair were removed by applying hair removal cream and Aquasonic Clear ultrasound transmission gel (Parker Laboratories) was applied to the hairless chest. […]
# as §3
# [5] = test system: α-myosin sensitized splenic cells; test: Testing the antigenicity of T cell epitopes (stimulation index, 3H-thymidine incorporation); format: cell-based, DR4 mice; details: for stimulation index: 3H-thymidine incorporation, peptides 30, 3 and 0.3 μg/ml, screening repeated three times, FIG. 8; for stimulation at the lowest concentration: 0.3 μg/ml
# Description: The antigenicity of predicted peptides was assessed T cell proliferation against human cardiac myosin was measured by comparison of their stimulation index determined by 3H-thymidine incorporation assay (in brief: cells were pulsed with ^3H-Thymidine for 18 hours at the same conditions by adding 25 μl of diluted ^3H-Tymidine solution in RPMI to each well (final concentration 0.5 μCi/well). Finally, the cells were kept at −20 C.° at least overnight until ready to harvest. After thawing the plates, the cells were harvested onto glass fibre filters (Cox Scientific) using a Combo Cell Harvester (Skatron). Then the filters were soaked in Betaplate Scint liquid scintillation cocktail (Perkin Elmer) and sealed into sample bags (Perkin Elmer). Finally, the sealed bags containing the filters were placed into cassettes and the amount of scintillation was read using 1450 Microbeta Liquid Scintillation Counter (Perkin Elmer) in order to determine the level of ^3H-tymidine incorporation.). The α-myosin sensitized splenic cells were challenged with each peptide (GenScript (USA), peptide concentrations were 30, 3 and 0.3 μg/ml) or whole myosin (30 μg/ml).
# [6] = test system: circulating anti-myosin antibodies; test: ELISA of circulating anti-myosin antibody levels in EAM DR4 mice; format: in vivo; details: EAM induction, n=5
# Description: as §2, with “Spleens were collected to measure cardiac myosin responsive T cell proliferation. Bloods were collected to measure circulating anti-myosin antibody levels.” left out
# After incubation with the alkaline phosphatase-conjugated antibodies, once again the plates were washed four times with PBST. […] Once the colour developed, the reaction was stopped by adding 50 μL of 2M NaOH (Sigma, UK) and the absorbance was measured using LT-5000MS ELISA Reader (Labtech) at a wavelength of 405 nm. […]
substance,measurement,setting,value
Whole myosin: myosin extracted from human heart left ventricular wall; immunogen for EAM induction and stimulus in proliferation assays,sudden death,[1],3 out of 5
same,mice with inflammation and tissue damage in the heart,[2],5 out of 5
same,increase in T cell proliferation against cardiac myosin,"[3]; 100 μg myosin in CFA + Pertussis toxin, vs control group with CFA and Pertussis toxin only",5-6 fold
same,anti-myosin T cell proliferation,"[3]; myosin 0.2, 2.0, 20 μg/ml in culture, n=5",increased
same,percentage of ejection fraction,"[4]; EAM induction vs control with only CFA and Pertussis toxin, p=0.003",significant decrease
same,fractional shortening,"[4]; EAM induction vs control with only CFA and Pertussis toxin, p=0.006",significant decrease
same,left ventricle systolic dimension,"[4]; EAM induction, p=0.039, FIG. 6B",significant increase
same,stimulation,[5]; second screening assay,2 fold
same,circulating anti-myosin IgG1 levels,"[6]; pmax=0.0008, FIG. 4A",increased significantly
same,circulating anti-myosin IgG2c levels,"[6]; pmax=0.02, FIG. 4B",significantly increased
VNPYKWLPVYNAEVV (T cell epitope peptide),stimulation index,[5],stronger stimulation than the rest of them
YHIFYQILSNKKPEL (T cell epitope peptide) [YL],stimulation index,[5],consistently the strongest stimulation amongst the peptides
same,stimulation at the lowest concentration,[5]; second screening assay,provided stimulation even at the lowest concentration
PHIFSISDNAYQYML (T cell epitope peptide) [PL],stimulation index,[5],stronger stimulation than the rest of them
same,stimulation at the lowest concentration,[5]; second screening assay,provided stimulation even at the lowest concentration
